Values of other authors in patent publication US8034370B2, “Ocular implant made by a double extrusion process” (Allergan, Inc., priority 2003, dated 2011).
Like-named read-outs stand apart in the source and are kept apart here.

Legend:
[1] = after topical administration
[2] = in vivo efficacy

| Solubility (Ethanol) | Solubility (Methylene chloride) | Solubility (Water) | fraction reaching the anterior segment [1] | Compound | potency relative to dexamethasone [2] |
| --- | --- | --- | --- | --- | --- |
| Ethanol: Sparingly soluble | Methylene chloride: slightly soluble | Water: practically insoluble | about 1% | C[C@@H]1C[C@H]2[C@@H]3CCC4=CC(=O)C=C[C@]4(C)[C@@]3(F)[C@@H](O)C[C@]2(C)[C@@]1(O)C(=O)CO [Dexamethasone, pregna-1,4-diene-3,20-dione-9-fluoro-11,17,21-trihydroxy-16-methyl-, (11β,16α)] |  |
|  |  |  |  | C[C@]12CCC(=O)C=C1CC[C@@H]1[C@@H]2[C@@H](O)C[C@@]2(C)[C@H]1CC[C@]2(O)C(=O)CO [hydrocortisone] | approximately twenty five |
